# How the values were obtained:
# Type in all cases: in vivo
# [1] = tested on: upland rice (Oryza sp., var. Tebonnet, RICE); assay: Pre-emerge test, crop safety; details: rating scale 0-100, 14 days after application
# Procedure, shortened: (§1)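 Fourteen days after spraying, crop and weed injury was graded visually from 0, no effect, to 100, every plant dead. Test substances were dissolved in acetone and applied at 15–1000 g ai/ha with a flat-fan nozzle. Application was either pre-emergence, one day after sowing, or post-emergence at the 2–3 leaf stage.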
# [2] = tested on: field corn (Zea mays L., var. Dekalb 535, CORN); assay: Pre-emerge test, crop safety; details: 63 g ai/ha; rating scale 0-100, 14 days after application
# Procedure, shortened: as §1
# [3] = tested on: redroot pigweed (Amaranthus retroflexus, AMARE); assay: Post-emerge test, greenhouse herbicide activity screening; details: rating scale 0-100 (0 no damage, 100 complete death), 14 days after application
# Procedure, shortened: (§2)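 Sandy loam pots; pre-emerge: sown 1 d pre-spray, surface-watered after, then bottom-watered. Post-emerge: sown 8–21 d before, 2–3 leaf stage, + 0.25% v/v NIS, bottom-watered. Acetone, 187 l/ha track spray, 15–1000 g ai/ha. 0–100 injury score, day 14.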
# [4] = tested on: sicklepod (Cassia obtusifolia, CASOB); assay: as above; details: rating scale 0-100 (0 no damage, 100 complete death), 14 days after application
# Procedure, shortened: as §2
# [5] = tested on: common ragweed (Ambrosia artemisizfolia L., AMBEL); assay: as above; details: rating scale 0-100 (0 no damage, 100 complete death), 14 days after application
# Procedure, shortened: as §2
# [6] = tested on: lambsquarters (Chenopodium album, CHEAL); assay: as above; details: rating scale 0-100 (0 no damage, 100 complete death), 14 days after application
# Procedure, shortened: as §2
# [7] = tested on: large crabgrass (Digitaria sanguinalis, DIGSA); assay: as above; details: rating scale 0-100 (0 no damage, 100 complete death), 14 days after application
# Procedure, shortened: as §2
# [8] = tested on: ivyleaf morningglory (Ipomoea hederacea, IPOHE); assay: as above; details: rating scale 0-100 (0 no damage, 100 complete death), 14 days after application
# Procedure, shortened: as §2
# [9] = tested on: johnsongrass (Sorghum halepense, SORHA); assay: as above; details: rating scale 0-100 (0 no damage, 100 complete death), 14 days after application
# Procedure, shortened: as §2
# [10] = tested on: barnyardgrass (Echinochloa crus-galli, ECHCG); assay: as above; details: rating scale 0-100 (0 no damage, 100 complete death), 14 days after application
# Procedure, shortened: as §2
# [11] = tested on: green foxtail (Setaria viridis, SETVI); assay: as above; details: rating scale 0-100 (0 no damage, 100 complete death), 14 days after application
# Procedure, shortened: as §2
# [12] = tested on: velvetleaf (Abutilon theophrasti, ABUTH); assay: as above; details: rating scale 0-100 (0 no damage, 100 complete death), 14 days after application
# Procedure, shortened: as §2
# [13] = tested on: redroot pigweed (Amaranthus retroflexus, AMARE); assay: Pre-emerge test, greenhouse herbicide activity screening; details: rating scale 0-100, 14 days after application
# Procedure, shortened: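 Compounds in acetone were track-sprayed at 15-1000 g ai/ha (187 l/ha) on sandy loam pots: pre-emerge one day after seeding, post-emerge at 2-3 leaf stage with 0.25% v/v non-ionic surfactant. Phytotoxicity was rated 14 days later on a 0 (no damage) to 100 (complete death) scale.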
# [14] = tested on: upland rice (Oryza sp., var. Tebonnet, RICE); assay: Post-emerge test, crop safety; details: rating scale 0-100 (0 no damage, 100 complete death), 14 days after application
# Procedure, shortened: (§3)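 Compounds in acetone were track-sprayed at 187 l/ha, 15–1000 g ai/ha, onto sandy loam pots. Pre-emerge seeds were sown one day before spraying, with surface watering afterwards. Post-emerge plants were at the 2–3 leaf stage and sprayed with 0.25% v/v non-ionic surfactant. Injury was rated 0–100 at 14 days.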
# [15] = tested on: field corn (Zea mays L., var. Dekalb 535, CORN); assay: Post-emerge test, crop safety; details: rating scale 0-100 (0 no damage, 100 complete death), 14 days after application
# Procedure, shortened: as §3
# [16] = tested on: sicklepod (Cassia obtusifolia, CASOB); assay: Pre-emerge test, greenhouse herbicide activity screening; details: rating scale 0-100, 14 days after application
# Procedure, shortened: as §3
# [17] = tested on: lambsquarters (Chenopodium album, CHEAL); assay: as above; details: rating scale 0-100, 14 days after application
# Procedure, shortened: as §3
# [18] = tested on: large crabgrass (Digitaria sanguinalis, DIGSA); assay: as above; details: rating scale 0-100, 14 days after application
# Procedure, shortened: as §3
# [19] = tested on: ivyleaf morningglory (Ipomoea hederacea, IPOHE); assay: as above; details: rating scale 0-100, 14 days after application
# Procedure, shortened: as §3
# [20] = tested on: johnsongrass (Sorghum halepense, SORHA); assay: as above; details: rating scale 0-100, 14 days after application
# Procedure, shortened: as §3
# [21] = tested on: barnyardgrass (Echinochloa crus-galli, ECHCG); assay: as above; details: rating scale 0-100, 14 days after application
# Procedure, shortened: as §3
# [22] = tested on: green foxtail (Setaria viridis, SETVI); assay: as above; details: rating scale 0-100, 14 days after application
# Procedure, shortened: as §3
# [23] = tested on: velvetleaf (Abutilon theophrasti, ABUTH); assay: as above; details: rating scale 0-100, 14 days after application
# Procedure, shortened: as §3
smiles,measurement,setting,value
COCCOC(=O)C(Cl)Cc1c(OC)c(Cl)cc(F)c1-n1c(=O)cc(C(F)(F)F)n(C)c1=O (stereo not drawn) [14-25],"Pre-emerge phytotoxicity rating, crop damage RICE",[1]; 63 g ai/ha,90
same,"Pre-emerge phytotoxicity rating, crop damage RICE",[1]; 250 g ai/ha,100
same,"Pre-emerge phytotoxicity rating, crop damage CORN",[2],95
same,"Post-emerge Herbicidal Activity, phytotoxicity rating AMARE",[3]; Rate 63 g ai/ha,95
same,"Post-emerge Herbicidal Activity, phytotoxicity rating AMARE",[3]; Rate 250 g ai/ha,100
same,"Post-emerge Herbicidal Activity, phytotoxicity rating CASOB",[4]; Rate 63 g ai/ha,50
same,"Post-emerge Herbicidal Activity, phytotoxicity rating CASOB",[4]; Rate 250 g ai/ha,80
same,"Post-emerge Herbicidal Activity, phytotoxicity rating AMBEL",[5]; Rate 63 g ai/ha,100
same,"Post-emerge Herbicidal Activity, phytotoxicity rating AMBEL",[5]; Rate 250 g ai/ha,100
same,"Post-emerge Herbicidal Activity, phytotoxicity rating CHEAL",[6]; Rate 63 g ai/ha,80
same,"Post-emerge Herbicidal Activity, phytotoxicity rating CHEAL",[6]; Rate 250 g ai/ha,100
same,"Post-emerge Herbicidal Activity, phytotoxicity rating DIGSA",[7]; Rate 63 g ai/ha,95
same,"Post-emerge Herbicidal Activity, phytotoxicity rating DIGSA",[7]; Rate 250 g ai/ha,100
same,"Post-emerge Herbicidal Activity, phytotoxicity rating IPOHE",[8]; Rate 63 g ai/ha,70
same,"Post-emerge Herbicidal Activity, phytotoxicity rating IPOHE",[8]; Rate 250 g ai/ha,100
same,"Post-emerge Herbicidal Activity, phytotoxicity rating SORHA",[9]; Rate 63 g ai/ha,40
same,"Post-emerge Herbicidal Activity, phytotoxicity rating SORHA",[9]; Rate 250 g ai/ha,95
same,"Post-emerge Herbicidal Activity, phytotoxicity rating ECHCG",[10]; Rate 63 g ai/ha,100
same,"Post-emerge Herbicidal Activity, phytotoxicity rating ECHCG",[10]; Rate 250 g ai/ha,100
same,"Post-emerge Herbicidal Activity, phytotoxicity rating SETVI",[11]; Rate 63 g ai/ha,50
same,"Post-emerge Herbicidal Activity, phytotoxicity rating SETVI",[11]; Rate 250 g ai/ha,80
same,"Post-emerge Herbicidal Activity, phytotoxicity rating ABUTH",[12]; Rate 63 g ai/ha,100
same,"Post-emerge Herbicidal Activity, phytotoxicity rating ABUTH",[12]; Rate 250 g ai/ha,100
same,"Pre-emerge herbicidal activity, phytotoxicity rating AMARE",[13]; 63 g ai/ha,100
same,"Pre-emerge herbicidal activity, phytotoxicity rating AMARE",[13]; 250 g ai/ha,100
same,Post-emerge phytotoxicity rating RICE (crop damage),[14]; Rate 63 g ai/ha,10
same,Post-emerge phytotoxicity rating RICE (crop damage),[14]; Rate 250 g ai/ha,50
same,Post-emerge phytotoxicity rating CORN (crop damage),[15]; Rate 63 g ai/ha,100
same,Post-emerge phytotoxicity rating CORN (crop damage),[15]; Rate 250 g ai/ha,100
same,"Pre-emerge herbicidal activity, phytotoxicity rating CASOB",[16]; 63 g ai/ha,50
same,"Pre-emerge herbicidal activity, phytotoxicity rating CASOB",[16]; 250 g ai/ha,100
same,"Pre-emerge herbicidal activity, phytotoxicity rating CHEAL",[17]; 63 g ai/ha,100
same,"Pre-emerge herbicidal activity, phytotoxicity rating CHEAL",[17]; 250 g ai/ha,100
same,"Pre-emerge herbicidal activity, phytotoxicity rating DIGSA",[18]; 63 g ai/ha,70
same,"Pre-emerge herbicidal activity, phytotoxicity rating DIGSA",[18]; 250 g ai/ha,100
same,"Pre-emerge herbicidal activity, phytotoxicity rating IPOHE",[19]; 63 g ai/ha,70
same,"Pre-emerge herbicidal activity, phytotoxicity rating IPOHE",[19]; 250 g ai/ha,100
same,"Pre-emerge herbicidal activity, phytotoxicity rating SORHA",[20]; 63 g ai/ha,80
same,"Pre-emerge herbicidal activity, phytotoxicity rating SORHA",[20]; 250 g ai/ha,100
same,"Pre-emerge herbicidal activity, phytotoxicity rating ECHCG",[21]; 63 g ai/ha,80
same,"Pre-emerge herbicidal activity, phytotoxicity rating ECHCG",[21]; 250 g ai/ha,100
same,"Pre-emerge herbicidal activity, phytotoxicity rating SETVI",[22]; 63 g ai/ha,90
same,"Pre-emerge herbicidal activity, phytotoxicity rating SETVI",[22]; 250 g ai/ha,100
same,"Pre-emerge herbicidal activity, phytotoxicity rating ABUTH",[23]; 63 g ai/ha,100
same,"Pre-emerge herbicidal activity, phytotoxicity rating ABUTH",[23]; 250 g ai/ha,100

# Source: patent publication US6355799B1, “Substituted benzene compounds, process for their preparation, and herbicidal and defoliant compositions containing them” (ISK Americas Incorporated, priority 1997, dated 2002)
